According to patent publication US12440493B2, “Combination therapy for treating cancer comprising substituted piperazines” (Eli Lilly and Company, priority 2020, dated 2025):
“And” between values parts separate entries of the source, which are not always exact repeats. Equal values may be shown once.

Assays:
2-HG production = experiment: Plasma 2-HG inhibition (LC-MS metabolite analysis in plasma of AML PDx model); assay type: in vivo, human; conditions: for % plasma 2-HG (treatment group value): vehicle 100%
[1] = test system: IDH1(R132H) primary human AML cells; experiment: AML clearance in peripheral blood (flow cytometry, % hCD33+hCD45+ of total white cells), human AML PDx models in NSG mice; assay type: in vivo; conditions: QD, PO, each value one animal
Experimental: Compounds and Formulation. For in vivo studies, each test article is prepared at an appropriate concentration with vehicle. […] Compound A is prepared fresh at the appropriate concentrations with vehicle every 7 days and stored at 4° C. between doses. […] Cytarabine is prepared fresh weekly by dilution with sterile saline from stock solution of Cytarabine (injection 20 mg/mL, (Pfizer injectables')). Azacitidine (Sigma, Lot #MKBR7212) is formulated in sterile water and is prepared fresh daily immediately before dosing. In vivo human AML PDx models. […] Two models are used in the studies: […] As needed, splenocytes from tumor-bearing mice are used to propagate and expand the models, as described. Each test article is prepared as described above at an appropriate concentration with vehicle to give animals the doses tested in this study at a dosing volume of 10 μL/gram body weight. Mice receiving Compound A (PO, QD) are treated at the indicated doses for the duration of the study. The combination agents are dosed as follows: […] Treated mice are assessed in comparison to vehicle treated and naïve (non-tumor bearing) control mice. Body weight is recorded twice per week. […] AML PDx model propagation. […] Spleens are processed and splenocytes isolated as described below. Two hundred μL per subject of the splenocyte prep is injected IV (intravenous, tail vein) into recipient NSG mice. […] Once engraftment is confirmed, the mice are monitored biweekly until ready to be put on study. […] Submandibular blood is collected. Spleen/Splenocyte Processing and Prep. After excision, a spleen is weighed, and […] is placed in a standard sterile 15 mL polypropylene conical tube containing PBS, and placed on ice. […] The spleen is placed in ice cold sterile PBS in a 15 mL collection tube. The spleen is removed from the collection tube and placed in a 100 micron 50 mL conical tube cell strainer (BD Falcon #352360). The spleen is processed by gentle rubbing of the spleen tissue against the surface of the cell strainer with the end of a 5 mL syringe plunger in a circular motion. The surface of the strainer is rinsed with 10 mL room temperature sterile DPBS (HyClone SH30028) 3 times during the process. […] The cell pellet is collected by centrifugation (300×g) and washed three times with 30 mL sterile DPBS. The cells are counted and resuspended in DPBS at the desired implant concentration. Bone Marrow Collection. […] Flow cytometry analysis of human white cells. Submandibular blood samples from in vivo studies are collected. Fluor-conjugated antibody stains are added according to the manufacturer's instructions (anti-human CD33-PE (clone WM53, BD Cat #555450), anti-human CD14-APC (clone MφpP9, BD Cat #340436), anti-human CD15-V450 (clone HI98, BD Cat #561584), anti-human CD117-BV421 (clone YB5.B8, BD Cat #562434), anti-human […]7 (clone ICRF44, BD Cat #557754), anti-human […]7 (clone HI30, BD Cat #557748), and anti-human CD3-FITC (clone SK7, BD Cat #340542)). The samples are incubated for 30 minutes at room temperature, protected from light. After the incubation, 1.5 mL 1×BD Lyse/Fix (37° C., (BD #558049)) is added to each sample and incubated for 12 minutes at room temperature. The tubes are centrifuged at 300×g for 7 minutes. BD Lyse/Fix solution is aspirated and the cell pellet washed with stain/wash buffer 3 times (1 wash step consisted of: pellet resuspended in 3 mL stain/wash buffer, centrifuged at 300×g, aspirated wash). Fixed cells are then resuspended in 300 to 400 μL stain/wash buffer. Samples are analyzed on a Becton Dickinson FACSVerse Flow cytometer (Cat #651155 Serial #Z6511550447) using standard flow cytometry principles and techniques. Samples are analyzed on the same day as they are stained and fixed. Population gating and data analysis of percent population are performed in the FACSuite software on the FACSVerse cytometer. Percent population values from the data analysis are plotted in Graphpad Prism or in JMP13. […]

[2] = 3.3 mg/kg Compound A, QD, PO, Table 1D, each line one animal
[3] = 3.3 mg/kg Compound A, QD, PO, Table 2D, each line one animal
[4] = plasma, B: 1 mg/kg Compound A, QD, PO, one line per animal
[5] = plasma, C: 10 mg/kg Compound A, one line per animal

For C=CC(=O)N1CCN([C@@H](CC2CC2)c2ccc([C@H](C)Nc3ncc4c(n3)N(CC)C(=O)OC4)cc2)CC1 [Compound A, 7-[[(1S)-1-[4-[(1S)-2-cyclopropyl-1-(4-prop-2-enoylpiperazin-1-yl)ethyl]phenyl]ethyl]amino]-1-ethyl-4H-pyrimido[4,5-d][1,3]oxazin-2-one], the “% Inhibition of 2-HG (plasma)” value (2-HG production; [2]) was 92.715% and 97.316% and 100.207% and 99.855% and 92.797% and 94.779%, the “Naive Subtracted 2-HG (plasma)” value (2-HG production; [2]) was 0.134 µM and 0.809 µM and 0.298 µM and -0.023 µM and 0.016 µM and 0.799 µM and 0.579 µM and the “Plasma 2-HG” value (2-HG production; [2]) was 1.042 µM and 1.717 µM and 1.206 µM and 0.885 µM and 0.924 µM and 1.708 µM and 1.488 µM. For the same compound, the “% Inhibition of 2-HG (plasma)” value (2-HG production; [3]) was 118.011% and 98.032% and 112.937% and 127.909% and 122.77% and 118.689% and 111.758%, the “Naive Subtracted 2-HG (plasma)” value (2-HG production; [3]) was -1.236 µM and 0.135 µM and -0.888 µM and -1.915 µM and -1.562 µM and -1.282 µM and -0.807 µM and the “Plasma 2-HG” value (2-HG production; [3]) was 1.701 µM and 3.072 µM and 2.049 µM and 1.022 µM and 1.374 µM and 1.654 µM and 2.13 µM. It also gave an inhibition at 10 mg/kg (2-HG production; NSG mice, plasma, C: 10 mg/kg Compound A, one line per animal) of 84%, an inhibition at 3.3 mg/kg (2-HG production; NSG mice, po, 3.3 mg/kg Compound A, QD, Table 1D, each line one animal) of 98.8% and an inhibition at 1 mg/kg (2-HG production; NSG mice, po, plasma, B: 1 mg/kg Compound A, QD, PO, one line per animal) of 54.7%. The “% plasma 2-HG (treatment group value)” value (2-HG production; group B: 1 mg Compound A) was 38%, the “% plasma 2-HG (treatment group value)” value (2-HG production; group B: Compound A (3.3 mg/kg), azacitidine study) was −15% and the “% plasma 2-HG (treatment group value)” value (2-HG production; group B: Compound A (3.3 mg/kg), cytarabine study) was 3.4%. For the same compound, the “% plasma 2-HG (treatment group value)” value (2-HG production; group C: 10 mg Compound A) was 9.2%, the 2-HG (2-HG production; [4]) was 9.264 µM and 6.489 µM and 7.318 µM and 8.683 µM and 8.938 µM and the “% Inhibition of 2-HG” value (2-HG production; [4]) was 73.015% and 67.532% and 58.504% and 56.818%. For the same compound, the “Naive Subtracted 2-HG” value (2-HG production; [4]) was 6.855 µM and 4.08 µM and 4.909 µM and 6.274 µM and 6.529 µM, the 2-HG (2-HG production; [5]) was 4.821 µM and 4.395 µM and 4.286 µM and 3.033 µM and 2.863 µM and the “% Inhibition of 2-HG” value (2-HG production; [5]) was 86.867% and 87.584% and 95.874% and 97%. For the same compound, the “Naive Subtracted 2-HG” value (2-HG production; [5]) was 2.412 µM and 1.986 µM and 1.877 µM and 0.624 µM and 0.454 µM, the “AML clearance (% hCD33 + hCD45+ (of total white cells))” value ([1]; Treatment day 2, 3.3 mg/kg Compound A, Table 2A, 3.3 mg/kg) was 17.05% and 19.48% and 22.89% and 20.16% and 18.6% and 25.83% and 19.49% and the “AML clearance (% hCD33 + hCD45+ (of total white cells))” value ([1]; Treatment day 7, 1 mg/kg Compound A, 1 mg/kg) was 12.21% and 7.04% and 6.97% and 8.4% and 10.28%. For the same compound, the “AML clearance (% hCD33 + hCD45+ (of total white cells))” value ([1]; Treatment day 7, 10 mg/kg Compound A, 10 mg/kg) was 4.04% and 3.35% and 6.37% and 4.2% and 2.73%, the “AML clearance (% hCD33 + hCD45+ (of total white cells))” value ([1]; Treatment day 15, 3.3 mg/kg Compound A, Table 2A, 3.3 mg/kg) was 35.68% and 39.36% and 39.41% and 22.01% and 44.8% and 40.7% and 29.24% and the “AML clearance (% hCD33 + hCD45+ (of total white cells))” value ([1]; Treatment day 18, 3.3 mg/kg Compound A, 3.3 mg/kg) was 20.86% and 33.61% and 41.83% and 32.38% and 38.57% and 42.91% and 20.85%. The “AML clearance (% hCD33 + hCD45+ (of total white cells))” value ([1]; Treatment day 23, 1 mg/kg Compound A, 1 mg/kg) was 16.54% and 9.05% and 15.88% and 9.45%, the “AML clearance (% hCD33 + hCD45+ (of total white cells))” value ([1]; Treatment day 23, 10 mg/kg Compound A, 10 mg/kg) was 4.97% and 1.6% and 8.52% and 2.88% and 2.41% and the “AML clearance (% hCD33 + hCD45+ (of total white cells))” value ([1]; Treatment day 28, 3.3 mg/kg Compound A, Table 2A, 3.3 mg/kg) was 32.12% and 43.09% and 32.66% and 35.22% and 35% and 33.35%. The “AML clearance (% hCD33 + hCD45+ (of total white cells))” value ([1]; Treatment day 34, 3.3 mg/kg Compound A, 3.3 mg/kg) was 27.18% and 34.09% and 34.27% and 48.87% and 20.33% and 33.11% and 34.28% and the “AML clearance (% hCD33 + hCD45+ (of total white cells))” value ([1]; Treatment day 36, 1 mg/kg Compound A, 1 mg/kg) was 16.96% and 20.94% and 15.66% and 13.65%.
